This data set concerns CCRIS mutagenicity, Ames/micronucleus/aberration tests. Kind of data set: CCRIS mutagenicity studies.
Where [1] appears, read: Test System: AMES SALMONELLA TYPHIMURIUM, Strain/Indicator: TA98, Metabolic Activation: NONE, Method: PREINCUBATION
Where [2] appears, read: Test System: AMES SALMONELLA TYPHIMURIUM, Strain/Indicator: TA98, Metabolic Activation: NONE, Method: STANDARD PLATE.
Setting [3] is: Test System: AMES SALMONELLA TYPHIMURIUM, Strain/Indicator: TA100, Metabolic Activation: NONE, Method: STANDARD PLATE.
[4] abbreviates: Test System: AMES SALMONELLA TYPHIMURIUM, Strain/Indicator: TA1538, Metabolic Activation: NONE, Method: STANDARD PLATE.
[5] abbreviates: Test System: AMES SALMONELLA TYPHIMURIUM, Strain/Indicator: TA100, Metabolic Activation: NONE, Method: PREINCUBATION
[6] abbreviates: Test System: AMES SALMONELLA TYPHIMURIUM, Strain/Indicator: TA100, Metabolic Activation: RAT, LIVER, S-9, AROCLOR 1254, Method: PREINCUBATION
Setting [7] is: Test System: AMES SALMONELLA TYPHIMURIUM, Strain/Indicator: TA98, Metabolic Activation: RAT, LIVER, S-9, AROCLOR 1254, Method: PREINCUBATION
Setting [8] is: Test System: AMES SALMONELLA TYPHIMURIUM, Strain/Indicator: TA98, Metabolic Activation: RAT, LIVER, S-9, AROCLOR 1254, Method: STANDARD PLATE.
Setting [9] is: Test System: AMES SALMONELLA TYPHIMURIUM, Strain/Indicator: TA100, Metabolic Activation: RAT, LIVER, S-9, AROCLOR 1254, Method: STANDARD PLATE.
Where [10] appears, read: Test System: AMES SALMONELLA TYPHIMURIUM, Strain/Indicator: TA1535, Metabolic Activation: NONE, Method: STANDARD PLATE.
Setting [11] is: Test System: AMES SALMONELLA TYPHIMURIUM, Strain/Indicator: TA1535, Metabolic Activation: RAT, LIVER, S-9, AROCLOR 1254, Method: STANDARD PLATE.
The mark [12] stands for this setting: Test System: AMES SALMONELLA TYPHIMURIUM, Strain/Indicator: TA1537, Metabolic Activation: NONE, Method: STANDARD PLATE.
Setting [13] is: Test System: AMES SALMONELLA TYPHIMURIUM, Strain/Indicator: TA1537, Metabolic Activation: RAT, LIVER, S-9, AROCLOR 1254, Method: STANDARD PLATE.

Calls of active or inactive are those of the source. The rule behind the calls is not given here.

`COc1cccc2c1C(=O)c1c(O)c3c(c(O)c1C2=O)C[C@@](O)(C(=O)CO)C[C@@H]3O[C@H]1C[C@H](N)[C@H](OC)[C@H](C)O1`: the mutagenic call by setting is: (Test System: AMES SALMONELLA TYPHIMURIUM, Strain/Indicator: GW257, Metabolic Activation: NONE, Method: STANDARD PLATE) “active; positive”; (Test System: AMES SALMONELLA TYPHIMURIUM, Strain/Indicator: TA97, Metabolic Activation: NONE, Method: STANDARD PLATE) “active; positive”; under setting [1], “active; positive”; under setting [2], “active; positive”; under setting [3], “active; positive”; (Test System: AMES SALMONELLA TYPHIMURIUM, Strain/Indicator: TA104, Metabolic Activation: NONE, Method: STANDARD PLATE) “active; positive”. Moreover, the mutagenic call was “active; positive” under setting [4] and “active; positive” (Test System: AMES SALMONELLA TYPHIMURIUM, Strain/Indicator: TA2637, Metabolic Activation: NONE, Method: STANDARD PLATE).
On to `O=C(O)COc1ccccc1`, for which the mutagenic call is “inactive; negative” (Test System: AMES SALMONELLA TYPHIMURIUM, Strain/Indicator: TA97, Metabolic Activation: NONE, Method: PREINCUBATION); “inactive; negative” (Test System: AMES SALMONELLA TYPHIMURIUM, Strain/Indicator: TA97, Metabolic Activation: RAT, LIVER, S-9, AROCLOR 1254, Method: PREINCUBATION); “inactive; negative” under setting [5]; “inactive; negative” under setting [6]; “inactive; negative” (Test System: AMES SALMONELLA TYPHIMURIUM, Strain/Indicator: TA102, Metabolic Activation: NONE, Method: PREINCUBATION); “inactive; negative” (Test System: AMES SALMONELLA TYPHIMURIUM, Strain/Indicator: TA102, Metabolic Activation: RAT, LIVER, S-9, AROCLOR 1254, Method: PREINCUBATION).
Take `CNS(=O)(=O)c1ccc(N)cc1`: the mutagenic call under setting [1] is “inactive; negative”, the mutagenic call under setting [7] was “inactive; negative”, the mutagenic call under setting [5] was “inactive; negative” and the mutagenic call under setting [6] is “inactive; negative”.
Consider `COCC12OOC1(C)c1ccccc1O2` (configuration not stated), for which, under setting [5], the mutagenic call is “active; positive”.
For `CN(C)c1ccc(N=Nc2ccc3ncsc3c2)cc1`, the mutagenic call is, setting by setting: under setting [7], “active; positive”; (Test System: AMES SALMONELLA TYPHIMURIUM, Strain/Indicator: TA98, Metabolic Activation: RAT, LIVER, S-9, AROCLOR, Method: PREINCUBATION) “active; positive”; (Test System: AMES SALMONELLA TYPHIMURIUM, Strain/Indicator: TA98, Metabolic Activation: RAT, LIVER, S-9, AROCLOR, Method: STANDARD PLATE) “active; positive”; (Test System: AMES SALMONELLA TYPHIMURIUM, Strain/Indicator: TA98, Metabolic Activation: RAT, LIVER, S-9, Method: PREINCUBATION) “active; positive”; (Test System: UDS RAT HEPATOCYTES, Strain/Indicator: THY INCORP, Metabolic Activation: NONE, Method: AUTORADIOGRAPHY) “active; positive”; (Test System: UDS RAT HEPATOCYTES, Strain/Indicator: THY INCORP, Metabolic Activation: NONE, Method: IN VIVO) “active; positive”. For the same compound, for the setting “Test System: UDS RODENT HEPATOCYTES, Strain/Indicator: THY INCORP (NON-S-PHASE), Metabolic Activation: NONE, Method: AUTORADIOGRAPHY”, the mutagenic call is “active; positive”.
Regarding `O=C(Cl)OCC1c2ccccc2-c2ccccc21`, the mutagenic call reads like this: under setting [2], “inactive; negative”; under setting [8], “inactive; negative”; under setting [3], “inactive; negative”; under setting [9], “inactive; negative”; under setting [10], “inactive; negative”; under setting [11], “inactive; negative”. The mutagenic call was “inactive; negative” under setting [12] and “active; positive” under setting [13].
Consider `CCCCC1C(=O)N(c2ccccc2)N(c2ccc(O)cc2)C1=O` (configuration not stated), for which the mutagenic call is, setting by setting: (Test System: AMES SALMONELLA TYPHIMURIUM, Strain/Indicator: TA97A, Metabolic Activation: NONE, Method: STANDARD PLATE) “inactive; negative”; (Test System: AMES SALMONELLA TYPHIMURIUM, Strain/Indicator: TA97A, Metabolic Activation: RAT LIVER S-9, PHENOBARBITAL, Method: STANDARD PLATE) “inactive; negative”; (Test System: AMES SALMONELLA TYPHIMURIUM, Strain/Indicator: TA98, Metabolic Activation: GUINEA PIG, LIVER, S-9, PCB, Method: PREINCUBATION) “inactive; negative”; (Test System: AMES SALMONELLA TYPHIMURIUM, Strain/Indicator: TA98, Metabolic Activation: HAMSTER, LIVER, S-9, PCB, Method: PREINCUBATION) “inactive; negative”; (Test System: AMES SALMONELLA TYPHIMURIUM, Strain/Indicator: TA98, Metabolic Activation: MOUSE, LIVER, S-9, PCB, Method: PREINCUBATION) “inactive; negative”; under setting [1], “inactive; negative”. In addition, the mutagenic call runs as follows: under setting [2], “inactive; negative”; (Test System: AMES SALMONELLA TYPHIMURIUM, Strain/Indicator: TA98, Metabolic Activation: RAT LIVER S-9, PHENOBARBITAL, Method: STANDARD PLATE) “inactive; negative”; (Test System: AMES SALMONELLA TYPHIMURIUM, Strain/Indicator: TA98, Metabolic Activation: RAT, LIVER, S-9, PCB, Method: PREINCUBATION) “inactive; negative”; (Test System: AMES SALMONELLA TYPHIMURIUM, Strain/Indicator: TA100, Metabolic Activation: GUINEA PIG, LIVER, S-9, PCB, Method: PREINCUBATION) “inactive; negative”; (Test System: AMES SALMONELLA TYPHIMURIUM, Strain/Indicator: TA100, Metabolic Activation: HAMSTER, LIVER, S-9, PCB, Method: PREINCUBATION) “inactive; negative”; (Test System: AMES SALMONELLA TYPHIMURIUM, Strain/Indicator: TA100, Metabolic Activation: MOUSE, LIVER, S-9, PCB, Method: PREINCUBATION) “inactive; negative”. Moreover, the mutagenic call is, setting by setting: under setting [5], “inactive; negative”; under setting [3], “inactive; negative”; (Test System: AMES SALMONELLA TYPHIMURIUM, Strain/Indicator: TA100, Metabolic Activation: RAT LIVER S-9 PHENOBARBITAL, Method: STANDARD PLATE) “inactive; negative”; (Test System: AMES SALMONELLA TYPHIMURIUM, Strain/Indicator: TA100, Metabolic Activation: RAT, LIVER, S-9, PCB, Method: PREINCUBATION) “active; positive”; (Test System: AMES SALMONELLA TYPHIMURIUM, Strain/Indicator: TA102, Metabolic Activation: NONE, Method: STANDARD PLATE) “inactive; negative”; (Test System: AMES SALMONELLA TYPHIMURIUM, Strain/Indicator: TA102, Metabolic Activation: RAT LIVER S-9, PHENOBARBITAL, Method: STANDARD PLATE) “inactive; negative”.
Consider `CCCCCC(=O)O[C@]1(C(C)=O)CC[C@H]2[C@@H]3CCC4=CC(=O)CC[C@@H]4[C@H]3CC[C@@]21C`, for which the mutagenic call reads like this: under setting [2], “inactive; negative”; under setting [8], “inactive; negative”; under setting [3], “inactive; negative”; under setting [9], “inactive; negative”; under setting [10], “inactive; negative”; under setting [11], “inactive; negative”. Also, the mutagenic call runs as follows: under setting [12], “inactive; negative”; under setting [13], “inactive; negative”; under setting [4], “inactive; negative”; (Test System: AMES SALMONELLA TYPHIMURIUM, Strain/Indicator: TA1538, Metabolic Activation: RAT, LIVER, S-9, AROCLOR 1254, Method: STANDARD PLATE) “inactive; negative”.

These data come from PubChem BioAssay AID1259407 (Chemical Carcinogenesis Research Information System (CCRIS), 2018).
